Patent US10016515B2, “DMA, a bis-benzimidazole, confers radioprotection to the intestine via Akt/NFκB dual pathway activation” (Jawaharlal Nehru University, priority 2016, dated 2018)
Where two headings read alike, the source gives them in different places.

Test: Tissue bio-distribution and tissue pharmacokinetics of DMA
Format: in vivo, mouse
Settings: for concentration at 2 h / concentration at 4 h / concentration at 6 h / concentration at 16 h / concentration at 24 h / concentration at 1 h: Balb/c, mouse
Method: Tissue samples were collected from the same mice from which blood samples were collected in both doses of DMA. Lung, liver, kidney, intestine, heart, spleen, brain were dissected and rinsed with phosphate buffer saline (PBS) and dried on blotting paper. 100 mg of tissue sample was homogenized for 20 s in chilled acetronitrile and water and further 700 μl chilled acetronitrile was added. The sample was centrifuged at 14000 rpm for 10 min and clear supernatant was collected for analysis on HPLC-MS/MS system.
A standard DMA calibration from 1-1000 ng/ml with internal standard (20 ng/ml) was quantified. Sample analysis was performed on positive ionization mode LC-MS/MS with multiple reactions monitoring (MRM, m/z Q1/Q3) of DMA (m/z 235.1/412.0, retention time (RT) 5.3 min) and internal standard (m/z 227.1/396.0, RT 6.5 min) (Agilent 6410 series). A gradient method was employed to analyze the plasma samples using mobile phase A (0.1% formic acid in water) and mobile phase B (methanol). The B % was set as 30 (0 min), 90 (10-14 min), 30 (14-24 min) with flow rate of 0.3 ml/min. An injection volume of 10 μl was used for analysis.
Peak tissue concentration (Cmax) of DMA and time to reach the Cmax (tmax) were read directly from the raw data by visual examination of mean tissue concentration-time profile. The tissue concentration-time data following oral dose were subjected to one-, two- and three-compartmental models using WinNonlin program (version 6.3; Certara Inc, Missouri, USA) to calculate the pharmacokinetic parameters. The pharmacokinetic models were compared according to maximal correlation between observed and predicted concentration, minimal sum of squared residuals, Akaike Information Criterion (AIC) and Schwarz Bayesian Criterion (SBC). However, the tissue concentration-time data following intravenous administration were subjected to non-compartmental approach.

[1] = intestine, iv, i.v. 50 mg/kg, read-out: Tissue DMA concentration, Intestine
[2] = intestine, Oral 100 mg/kg, read-out: Tissue DMA concentration, Intestine
[3] = kidney, iv, i.v. 50 mg/kg, read-out: Tissue DMA concentration, Kidney

With `COc1ccc(-c2nc3cc(-c4nc5cc(N6CCN(C)CC6)ccc5[nH]4)ccc3[nH]2)cc1OC` [DMA, 5-(4-methylpiperazin-1-yl)-2-[2′-(3,4-dimethoxyphenyl)-5′-benzimidazolyl]benzimidazole] the “Concentration achieved in intestine” value (50 mg/kg i.v.) was 1260 µg/g, the “Small intestine concentration, i.v. as compared to oral route” value (50 mg/kg i.v. vs 100 mg/kg oral) was 11.88 fold and the “AUC, Kidney” value (50 mg/kg intravenous) was 945577.2 ng·h/g. The “AUC, Liver” value (50 mg/kg intravenous) was 889040 ng·h/g, the “AUC, Lung” value (50 mg/kg intravenous) was 2674622.2 ng·h/g and the “AUC, Small Intestine” value (50 mg/kg intravenous) was 220072.6 ng·h/g. The “AUC, Spleen” value (50 mg/kg intravenous) was 145191 ng·h/g, the “C1 hr, Kidney” value (50 mg/kg intravenous) was 14900 ng/g and the “C1 hr, Liver” value (50 mg/kg intravenous) was 41600 ng/g. The “C1 hr, Lung” value (50 mg/kg intravenous) was 109000 ng/g, the “C1 hr, Small Intestine” value (50 mg/kg intravenous) was 1260000 ng/g and the “Clearance, Kidney” value (50 mg/kg intravenous) was 17.9 g/h/kg. The “Clearance, Liver” value (50 mg/kg intravenous) was 39.5 g/h/kg, the “Clearance, Small Intestine” value (50 mg/kg intravenous) was 15.0 g/h/kg and the “Clearance, Spleen” value (50 mg/kg intravenous) was 89.3 g/h/kg. For the same compound, the “Vd, Kidney” value (50 mg/kg intravenous) was 1944.8 g/kg, the “Vd, Liver” value (50 mg/kg intravenous) was 668.7 g/kg and the “Vd, Lung” value (50 mg/kg intravenous) was 552.1 g/kg. For the same compound, the “Vd, Small Intestine” value (50 mg/kg intravenous) was 40360.3 g/kg, the “Vd, Spleen” value (50 mg/kg intravenous) was 3857.9 g/kg and the “Vss, Kidney” value (50 mg/kg intravenous) was 1623.5 g/kg. For the same compound, the “Vss, Liver” value (50 mg/kg intravenous) was 496.11 g/kg, the “Vss, Lung” value (50 mg/kg intravenous) was 10.72 g/kg and the “Vss, Small Intestine” value (50 mg/kg intravenous) was 4.9 g/kg. The “Vss, Spleen” value (50 mg/kg intravenous) was 4114.6 g/kg, the “AUC, Kidney” value (100 mg/kg oral dose) was 10874.29 ng·h/g and the “AUC, Liver” value (100 mg/kg oral dose) was 20717.3 ng·h/g. The “AUC, Small Intestine” value (100 mg/kg oral dose) was 361353.4 ng·h/g, the “AUC, Spleen” value (100 mg/kg oral dose) was 8353.819 ng·h/g and the “Cl/F, Kidney” value (100 mg/kg oral dose) was 9190 g/h/kg. For the same compound, the “Cl/F, Liver” value (100 mg/kg oral dose) was 4000 g/h/kg, the “Cl/F, Small Intestine” value (100 mg/kg oral dose) was 277 g/h/kg and the “Cl/F, Spleen” value (100 mg/kg oral dose) was 11000 g/h/kg. For the same compound, the “Cmax, Kidney” value (100 mg/kg oral dose) was 1530 ng/g, the “Cmax, Liver” value (100 mg/kg oral dose) was 2230 ng/g and the “Maximum concentration in small intestine” value (100 mg/kg oral, at 2 h) was 106 µg/g. The “Maximum concentration in spleen” value (100 mg/kg oral, at 2 h) was 1.31 µg/g, the “Maximum concentration in kidney” value (100 mg/kg oral, at 4 h) was 1.53 µg/g and the “Maximum concentration in liver” value (100 mg/kg oral, at 4 h) was 2.23 µg/g. It also gave a concentration at 2 h [1] of 70400 ng/g, a concentration at 4 h [1] of 59200 ng/g and a concentration at 6 h [1] of 29700 ng/g. The concentration at 16 h [1] was 2530 ng/g, the concentration at 24 h [1] was 1710 ng/g and the concentration at 1 h (intestine, Oral 100 mg/kg, 1 h, read-out: Tissue DMA concentration, Intestine) was 675 ng/g. It also gave a concentration at 2 h [2] of 106000 ng/g, a concentration at 4 h [2] of 30200 ng/g and a concentration at 6 h [2] of 28700 ng/g. It also gave a concentration at 16 h [2] of 612 ng/g, a concentration at 24 h [2] of 410 ng/g and a concentration at 1 h (kidney, intravenous, 50 mg/kg i.v., read-out: Concentration achieved in kidney) of 14900 ng/g. It also gave a concentration at 1 h (kidney, iv, i.v. 50 mg/kg, 1 h, read-out: Tissue DMA concentration, Kidney) of 14900 ng/g, a concentration at 2 h [3] of 8370 ng/g and a concentration at 4 h [3] of 9080 ng/g. It also gave a concentration at 6 h [3] of 707 ng/g and a concentration at 16 h [3] of 263 ng/g.
